The results in this text go back to ChEMBL document CHEMBL1201862, “PubChem BioAssay data set” (2004).

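Protocol summary: plate cells (96-well), add compound at 5 concentrations, incubate 48 h, interpolate endpoints linearly. GI50 = concentration required for 50% inhibition of growth.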 The source made the active and inactive calls. No stated cut-off is given here; in the data, active = GI50 up to about 1.1 µM and inactive = higher.

Test systems include OVCAR-5; UACC-62; NCI-H226; 786-0; PC-3; UACC-257; SR; RXF 393; SN12C; TK-10; SK-MEL-5; NCI-H522; CAKI-1; HCT-116; SF-539; NCI/ADR-RES; HOP-62; M14; HOP-92; CCRF-CEM.
What all share (experiment): NCI-60 cell line screen, 48 h

As for `O=[N+]([O-])/C=C/c1cc2ccc3ccccc3c2[nH]1`, the GI50 in the assay on OVCAR-5 was 2.29 µM (inactive); in the assay on UACC-62, 1.68 µM (inactive); in the assay with NCI-H226 it was 1.06 µM (active); with 786-0, 1.36 µM (inactive); in the assay on PC-3 it was 1.46 µM (inactive); in the assay on UACC-257, 2.24 µM (inactive). In addition, the GI50 is 0.555 µM (active) with SR; 1.43 µM (inactive) with RXF 393; 1.86 µM (inactive) with SN12C; 1.58 µM (inactive) with TK-10; 1.64 µM (inactive) with SK-MEL-5; 0.851 µM (active) with NCI-H522. Further, the GI50 in the assay with CAKI-1 was 2.23 µM (inactive); with HCT-116, 1.52 µM (inactive); with SF-539, 1.86 µM (inactive); in the assay with NCI/ADR-RES, 2.42 µM (inactive); in the assay with HOP-62, 1.98 µM (inactive); in the assay on M14 it was 1.64 µM (inactive). In addition, the GI50 with HOP-92 was 1.76 µM (inactive); in the assay with CCRF-CEM it was 0.299 µM (active).
As for `N#Cc1nc(-c2ccccc2C(=O)O)oc1N`, the GI50 in the assay with OVCAR-5, in the assay with UACC-62, in the assay with NCI-H226, with 786-0, with PC-3 and in the assay on UACC-257 was > 100 µM (inactive) in each case. Moreover, the GI50 with SR, in the assay on RXF 393, in the assay with SN12C, with TK-10, in the assay with SK-MEL-5 and with NCI-H522 was > 100 µM (inactive) each time. In addition, the GI50 in the assay with CAKI-1, in the assay with HCT-116, in the assay with SF-539, in the assay with NCI/ADR-RES, in the assay on HOP-62 and in the assay on M14 was > 100 µM (inactive) in each case. Also, the GI50 in the assay with HOP-92 and with CCRF-CEM was > 100 µM (inactive) in each case.
Regarding `Cc1cc(=O)oc2c(CNC(C)C(=O)O)c(O)ccc12` (stereo not given), the GI50 with OVCAR-5, in the assay with UACC-62, with NCI-H226, in the assay with 786-0, in the assay on PC-3 and in the assay on UACC-257 was > 100 µM (inactive) in each case. The GI50 is > 100 µM (inactive) in the assay on SR; > 100 µM (inactive) in the assay with RXF 393; > 100 µM (inactive) in the assay on SN12C; 95.7 µM (inactive) in the assay on TK-10; > 100 µM (inactive) in the assay on SK-MEL-5; > 100 µM (inactive) in the assay with NCI-H522. Further, the GI50 is > 100 µM (inactive) in the assay with CAKI-1; 71.4 µM (inactive) with HCT-116; > 100 µM (inactive) with SF-539; > 100 µM (inactive) in the assay on NCI/ADR-RES; > 100 µM (inactive) in the assay on HOP-62; > 100 µM (inactive) in the assay on M14. The values for the GI50 in the assay with HOP-92 and in the assay with CCRF-CEM were 65.3 µM (inactive) and > 100 µM (inactive), respectively.
For `O=[N+]([O-])c1c(Br)cc(Br)c2c1Nc1c(ccc(Cl)c1Cl)S2`, the GI50 with OVCAR-5 is 17.9 µM (inactive); in the assay with UACC-62, 16 µM (inactive); in the assay with NCI-H226, 5.96 µM (inactive); in the assay on 786-0, 9.18 µM (inactive); in the assay on PC-3, 17.7 µM (inactive); with UACC-257, 8.49 µM (inactive). For the same compound, the GI50 in the assay on SR was 5.86 µM (inactive); with RXF 393, 19.6 µM (inactive); in the assay with SN12C it was 13.8 µM (inactive); with TK-10 it was 22.5 µM (inactive); with SK-MEL-5, 13.6 µM (inactive); in the assay with NCI-H522 it was 6.53 µM (inactive). Further, the GI50 was 16.5 µM (inactive) in the assay on CAKI-1; 6.37 µM (inactive) in the assay with HCT-116; 22.2 µM (inactive) in the assay on SF-539; 29.5 µM (inactive) with NCI/ADR-RES; 18.8 µM (inactive) with HOP-62; 11.4 µM (inactive) with M14. Moreover, the GI50 in the assay with HOP-92 is 18.7 µM (inactive); in the assay on CCRF-CEM, 2.39 µM (inactive).
In the case of `C/C(=N\Nc1nc2cc(C)ccc2s1)c1ccccn1`, the GI50 was 0.661 µM (active) in the assay on OVCAR-5; 0.596 µM (active) in the assay with UACC-62; 0.348 µM (active) in the assay with NCI-H226; 0.519 µM (active) in the assay with 786-0; 0.593 µM (active) in the assay on PC-3; 0.5 µM (active) in the assay with UACC-257. For the same compound, the GI50 in the assay with SR is 0.232 µM (active); in the assay with RXF 393 it was 3.63 µM (inactive); in the assay on SN12C, 0.401 µM (active); with TK-10 it was 2.22 µM (inactive); with SK-MEL-5 it was 0.404 µM (active); in the assay with NCI-H522, 0.148 µM (active). Also, the GI50 is 0.0562 µM (active) in the assay on CAKI-1; 0.213 µM (active) in the assay on HCT-116; 1.39 µM (inactive) in the assay with SF-539; 0.261 µM (active) in the assay on NCI/ADR-RES; 0.294 µM (active) in the assay on HOP-62; 0.417 µM (active) with M14. Further, the figures for the GI50 in the assay on HOP-92 and in the assay with CCRF-CEM were 0.282 µM (active) and 0.149 µM (active), respectively.
For the compound `Cc1cn(C2CC(Br)C(COC(c3ccccc3)(c3ccccc3)c3ccccc3)O2)c(=O)[nH]c1=O` (stereo not given), the GI50 with OVCAR-5 is 16.6 µM (inactive); in the assay with UACC-62 it was 12.2 µM (inactive); in the assay on NCI-H226, 19.2 µM (inactive); with 786-0 it was 14.3 µM (inactive); with PC-3, 5.73 µM (inactive); with UACC-257, 16.1 µM (inactive). Also, the GI50 in the assay with SR is 5 µM (inactive); in the assay on RXF 393 it was 11.2 µM (inactive); in the assay with SN12C it was 14.7 µM (inactive); in the assay on TK-10, 14.7 µM (inactive); with SK-MEL-5, 12.7 µM (inactive); in the assay with NCI-H522, 7.24 µM (inactive). Besides, the GI50 is 15.1 µM (inactive) in the assay with CAKI-1; 8.2 µM (inactive) in the assay on HCT-116; 17.2 µM (inactive) in the assay with SF-539; 13.7 µM (inactive) in the assay on NCI/ADR-RES; 16.9 µM (inactive) with HOP-62; 13.2 µM (inactive) with M14. Also, the GI50 with HOP-92 is 11.2 µM (inactive); in the assay on CCRF-CEM it was 4.88 µM (inactive).
